Here are results for 18 molecules from ChEMBL document CHEMBL1147438, “Discovery of novel aspartyl ketone dipeptides as potent and selective caspase-3 inhibitors” (Bioorg Med Chem Lett, 2004).

One assay concerns the target T1, Caspase-1 (Homo sapiens, UniProt P29466).
T1 sequence (P29466 whole entry): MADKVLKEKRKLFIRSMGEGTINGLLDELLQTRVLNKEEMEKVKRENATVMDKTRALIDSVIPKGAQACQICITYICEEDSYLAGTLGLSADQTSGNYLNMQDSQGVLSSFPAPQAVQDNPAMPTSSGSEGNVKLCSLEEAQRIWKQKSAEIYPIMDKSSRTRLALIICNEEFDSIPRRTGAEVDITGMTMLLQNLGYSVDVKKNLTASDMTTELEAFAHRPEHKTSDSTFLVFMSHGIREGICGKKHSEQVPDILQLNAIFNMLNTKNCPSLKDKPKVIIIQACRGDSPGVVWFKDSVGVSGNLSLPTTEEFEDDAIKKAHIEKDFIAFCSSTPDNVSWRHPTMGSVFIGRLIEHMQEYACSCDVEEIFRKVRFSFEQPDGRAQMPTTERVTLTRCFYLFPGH
Put plainly: Inhibitory activity against caspase-1.

The target in another assay is Caspase-8 (Homo sapiens, UniProt Q14790). Put plainly: Inhibitory activity against caspase-8.
A further assay has as its target T2, Caspase-3 (Homo sapiens, UniProt P42574).
T2 sequence (P42574 whole entry): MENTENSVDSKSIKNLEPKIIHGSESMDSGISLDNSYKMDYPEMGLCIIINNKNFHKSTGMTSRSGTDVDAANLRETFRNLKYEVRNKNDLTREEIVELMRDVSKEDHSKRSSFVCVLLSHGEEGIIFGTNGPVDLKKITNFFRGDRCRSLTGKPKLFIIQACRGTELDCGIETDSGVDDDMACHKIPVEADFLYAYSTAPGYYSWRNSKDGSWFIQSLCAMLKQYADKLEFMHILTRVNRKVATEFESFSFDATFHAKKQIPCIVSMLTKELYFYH
Put plainly: Inhibitory activity against caspase-3.

The next assay deals with T3, Caspase-7 (Homo sapiens, UniProt P55210).
T3 sequence (P55210 whole entry): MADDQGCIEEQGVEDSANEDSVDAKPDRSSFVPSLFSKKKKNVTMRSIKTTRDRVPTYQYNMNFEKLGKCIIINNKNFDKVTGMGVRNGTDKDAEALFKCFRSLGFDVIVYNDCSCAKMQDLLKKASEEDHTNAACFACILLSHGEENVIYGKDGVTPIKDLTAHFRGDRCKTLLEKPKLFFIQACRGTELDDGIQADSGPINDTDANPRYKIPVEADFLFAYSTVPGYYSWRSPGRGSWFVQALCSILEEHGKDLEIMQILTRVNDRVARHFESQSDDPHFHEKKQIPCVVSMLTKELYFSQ
Put plainly: Inhibitory activity against caspase-7.

For the next assay, the system named is NT2. Put plainly: Inhibitory activity against NT2 cells. The assay is classed as functional, cell-based. The settings on record: Homo sapiens.

Structures are written as SMILES.

Sequence of Caspase-8 (Q14790 217-374 limits assumed): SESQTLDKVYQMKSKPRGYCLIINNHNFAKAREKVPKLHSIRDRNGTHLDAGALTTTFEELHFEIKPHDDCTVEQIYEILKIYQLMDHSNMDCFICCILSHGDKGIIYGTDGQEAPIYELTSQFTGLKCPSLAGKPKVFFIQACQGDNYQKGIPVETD
Sequence of Caspase-8 (Q14790 385-479 limits assumed): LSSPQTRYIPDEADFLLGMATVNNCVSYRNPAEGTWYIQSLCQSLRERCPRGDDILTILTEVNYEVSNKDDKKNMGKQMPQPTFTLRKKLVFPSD

A word on the IC50: it is the concentration at which inhibition is half-maximal. A lower IC50 goes with greater potency in that assay. Turning to `COc1ccccc1CC(=O)N[C@H](C(=O)N[C@@H](CC(=O)O)C(=O)CSCc1ccccc1)C(C)C`, the IC50 on Caspase-1 turned out to be 28 µM; against Caspase-8, 15.5 µM; on Caspase-3, 310 nM; on Caspase-7 it was 2700 nM.

As for `COc1ccc(OC)c(CC(=O)N[C@H](C(=O)N[C@@H](CC(=O)O)C(=O)CSCc2ccccc2)C(C)C)c1`, the IC50 against Caspase-1 was found to be 6 µM; on Caspase-8 it was 6.6 µM; against Caspase-3, 48 nM; in the assay on NT2 it was 10 µM; against Caspase-7 it was 3200 nM.

In the case of `COc1ccc(S(C)(=O)=O)cc1CC(=O)N[C@H](C(=O)N[C@@H](CC(=O)O)C(=O)CSCc1c(F)cccc1Cl)C(C)C`, the IC50 stood at 1.6 µM on Caspase-1; 0.49 µM at Caspase-8; 5 nM against Caspase-3; 1 µM in the assay with NT2; 120 nM against Caspase-7.

For the molecule `CC(C)[C@H](NC(=O)c1cc(Br)cc(Br)c1)C(=O)N[C@@H](CC(=O)O)C(=O)CSCc1ccccc1`, the IC50 was found to be 0.86 µM against Caspase-1; 8.7 µM against Caspase-8; 140 nM against Caspase-3; 63 µM with NT2; 1500 nM on Caspase-7.

As for `COc1ccc(C(C)=O)cc1CC(=O)N[C@H](C(=O)N[C@@H](CC(=O)O)C(=O)CSCc1ccccc1)C(C)C`, the IC50 at Caspase-1 stood at 5.9 µM; at Caspase-8, 2.9 µM; at Caspase-3, 10 nM; in the assay with NT2 it was 2 µM; against Caspase-7 it was 130 nM.

As to `COc1ccc(OC)c(CC(=O)N[C@H](C(=O)N[C@@H](CC(=O)O)C(=O)CSCc2c(F)cccc2Cl)C(C)C)c1`, the IC50 against Caspase-1 is 5 µM; at Caspase-8, 2.4 µM; at Caspase-3, 73 nM; in the assay with NT2, 9 µM; at Caspase-7, 2500 nM.

Regarding `CCOc1ccc(OCC(=O)O)cc1CC(=O)N[C@H](C(=O)N[C@@H](CC(=O)O)C(=O)CSCc1c(F)cccc1Cl)C(C)C`, the IC50 against Caspase-1 stood at 3.8 µM; against Caspase-8 it was 0.81 µM; on Caspase-3, 5 nM; with NT2, 5 µM; against Caspase-7, 360 nM.

Regarding `CCOc1ccc(OCC(=O)OC(C)C)cc1CC(=O)N[C@H](C(=O)N[C@@H](CC(=O)O)C(=O)CSCc1c(F)cccc1Cl)C(C)C`, the IC50 against Caspase-1 stood at 4.2 µM; against Caspase-8 it was 6.3 µM; on Caspase-3 it was 94 nM; with NT2, 0.3 µM; at Caspase-7 it was 2300 nM.

Consider `CC(C)[C@H](NC(=O)c1cc2cc(F)ccc2[nH]1)C(=O)N[C@@H](CC(=O)O)C(=O)CSCc1ccccc1`, for which the IC50 against Caspase-1 is 2.6 µM; against Caspase-8 it was 3.3 µM; at Caspase-3, 83 nM; in the assay on NT2, 55 µM; on Caspase-7 it was 1400 nM.

`COc1cccc(CC(=O)N[C@H](C(=O)N[C@@H](CC(=O)O)C(=O)CSCc2ccccc2)C(C)C)c1`: the IC50 was 14 µM against Caspase-1; 14 µM against Caspase-8; 210 nM on Caspase-3; 60 µM in the assay on NT2; 3100 nM on Caspase-7.

Regarding `CC(C)[C@H](NC(=O)[C@H](C)NC(=O)[C@H](CC(=O)O)NC(=O)c1ccccc1)C(=O)N[C@@H](CC(=O)O)C(=O)CCCc1ccccc1`, the concentration for half-maximal inhibition (IC50) against Caspase-1 was found to be 1.65 µM; against Caspase-8, 1.5 µM; against Caspase-3, 1.8 nM; in the assay on NT2, 14 µM; at Caspase-7, 8.4 nM.

Regarding `CCOc1ccc(OCC(=O)OC)cc1CC(=O)N[C@H](C(=O)N[C@@H](CC(=O)O)C(=O)CSCc1c(F)cccc1Cl)C(C)C`, the IC50 stood at 6.5 µM against Caspase-1; 9.3 µM at Caspase-8; 53 nM at Caspase-3; 0.7 µM in the assay on NT2; 1700 nM on Caspase-7.

Regarding `COc1ccc(OC)c(CC(=O)N[C@H](C(=O)N[C@@H](CC(=O)O)C(=O)CSCC2CCCCC2)C(C)C)c1`, the IC50 was 1.8 µM against Caspase-1; 2 µM on Caspase-8; 63 nM against Caspase-3; 19 µM with NT2; more than 10000 nM against Caspase-7.

With `CC(C)[C@H](NC(=O)Cc1ccccc1)C(=O)N[C@@H](CC(=O)O)C(=O)CSCc1ccccc1`, the 50% inhibitory concentration (IC50) at Caspase-1 came to 22 µM; on Caspase-8, 22.5 µM; against Caspase-3, 750 nM; against Caspase-7 it was 8400 nM.

As to `COc1ccc(OC)c(CC(=O)N[C@H](C(=O)N[C@@H](CC(=O)O)C(=O)CSCC(C)C)C(C)C)c1`, the IC50 against Caspase-1 came to 2.6 µM; against Caspase-8, 7.8 µM; on Caspase-3, 130 nM; with NT2, 32 µM; on Caspase-7, 1800 nM.

For the molecule `CC(=O)N[C@@H](CC(=O)O)C(=O)N[C@@H](CCC(=O)O)C(=O)N[C@H](C(=O)N[C@H](C=O)CC(=O)O)C(C)C`, the IC50 is 0.19 µM at Caspase-1, 0.13 µM against Caspase-8, more than 100 µM in the assay on NT2 and 87 nM on Caspase-7.

`CCOc1ccc(/C=C/C(=O)OC)cc1CC(=O)N[C@H](C(=O)N[C@@H](CC(=O)O)C(=O)CSCc1c(F)cccc1Cl)C(C)C`: the IC50 against Caspase-1 is 1.8 µM; on Caspase-8, 3.85 µM; with NT2, 0.6 µM; against Caspase-7, 24 nM.

Turning to `COc1ccc(Br)cc1CC(=O)N[C@H](C(=O)N[C@@H](CC(=O)O)C(=O)CSCc1ccccc1)C(C)C`, the IC50 at Caspase-1 came to 3.1 µM; against Caspase-8 it was 2.3 µM; against Caspase-3 it was 60 nM; in the assay on NT2, 9 µM; against Caspase-7, 3100 nM.
